US10513521B2, “Compositions and methods for inhibiting BMP” (The Brigham and Women's Hospital, Inc., priority 2014, dated 2019)
Changes are numbered by the printed parent chain. Like-named read-outs stand apart in the source and are kept apart here.

Legend:
ALK1 = ALK1 (Homo sapiens, UniProt P37023); test: TR-FRET enzymatic ALK kinase assay, ALK1
Description: (§1) Briefly, the ALKs enzymatic assay was initiated by dispense 2.5 μl enzyme in 1× kinase reaction buffer. The assay plate was then added with compounds followed by incubation at room temperature for 10 minutes. Then 2.5 μl/well substrate was added.

ALK6 = ALK6 (Homo sapiens, UniProt O00238); test: TR-FRET enzymatic ALK kinase assay, ALK6
Description: as §1

ALK2 [1] = target: T1, ALK2 (Homo sapiens, UniProt Q04771); test: TR-FRET enzymatic ALK kinase assay, ALK2
T1 sequence (Q04771 21-509): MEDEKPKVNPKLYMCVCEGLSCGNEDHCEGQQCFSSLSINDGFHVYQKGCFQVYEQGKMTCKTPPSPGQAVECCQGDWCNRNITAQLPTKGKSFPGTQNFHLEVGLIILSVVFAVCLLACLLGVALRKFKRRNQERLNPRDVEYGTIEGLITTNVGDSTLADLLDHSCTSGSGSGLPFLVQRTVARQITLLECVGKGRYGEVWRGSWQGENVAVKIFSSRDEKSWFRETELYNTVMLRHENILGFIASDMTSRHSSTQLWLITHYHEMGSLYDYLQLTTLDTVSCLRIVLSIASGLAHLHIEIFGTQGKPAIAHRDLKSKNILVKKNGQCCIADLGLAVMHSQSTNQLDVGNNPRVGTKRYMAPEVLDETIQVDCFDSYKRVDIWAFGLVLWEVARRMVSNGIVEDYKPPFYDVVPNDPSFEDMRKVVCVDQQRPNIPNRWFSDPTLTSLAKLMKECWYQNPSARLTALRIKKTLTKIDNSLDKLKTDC
Description: as §1

ALK2 [2] = target: T2, ALK2 (Mus musculus, UniProt P37172); test: HTRF pSMAD1 cell-based ALK2 assay (C2C12 cells, BMP6 as agonist)
T2 construct: The C2C12 cell line was selected for the measurement of ALK2 activity using BMP6 as the agonist; host or cells: C2C12
T2 sequence (P37172 21-509): T1 sequence (Q04771 21-509) with M1V, P10Q, L121I, D162E, P310S
Outline: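 Phospho-SMAD1 HTRF readout, detection incubated overnight at room temperature. Before that: starved cells in 0.1% FBS for 4 h, 30 min compound pretreatment, then 30 min agonist, BMP6 on C2C12 or BMP9 on BAOEC.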

ALK3 = ALK3 (Homo sapiens, UniProt P36894); test: TR-FRET enzymatic ALK kinase assay, ALK3
Description: as §1

[3] = Cell-based assay, TGFb1 (Cell IC50)
ALK4 = target: T3, ALK4 (Homo sapiens, UniProt P36896); test: TR-FRET enzymatic ALK kinase assay, ALK4
T3 sequence (P36896 24-505): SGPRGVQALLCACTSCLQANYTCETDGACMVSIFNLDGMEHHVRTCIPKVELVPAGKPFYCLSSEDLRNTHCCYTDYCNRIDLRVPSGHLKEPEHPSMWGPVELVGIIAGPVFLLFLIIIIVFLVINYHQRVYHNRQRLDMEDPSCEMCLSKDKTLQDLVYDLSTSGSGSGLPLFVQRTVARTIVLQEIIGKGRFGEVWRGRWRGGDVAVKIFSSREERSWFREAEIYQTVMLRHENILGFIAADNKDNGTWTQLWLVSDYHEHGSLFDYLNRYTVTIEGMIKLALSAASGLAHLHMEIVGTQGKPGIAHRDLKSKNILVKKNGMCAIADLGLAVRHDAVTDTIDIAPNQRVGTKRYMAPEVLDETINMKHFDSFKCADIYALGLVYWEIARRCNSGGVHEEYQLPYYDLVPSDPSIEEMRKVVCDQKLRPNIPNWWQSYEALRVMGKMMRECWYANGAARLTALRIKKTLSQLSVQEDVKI
Description: as §1

ALK5 = target: T4, ALK5 (Homo sapiens, UniProt P36897); test: TR-FRET enzymatic ALK kinase assay, ALK5
T4 sequence (P36897 34-503): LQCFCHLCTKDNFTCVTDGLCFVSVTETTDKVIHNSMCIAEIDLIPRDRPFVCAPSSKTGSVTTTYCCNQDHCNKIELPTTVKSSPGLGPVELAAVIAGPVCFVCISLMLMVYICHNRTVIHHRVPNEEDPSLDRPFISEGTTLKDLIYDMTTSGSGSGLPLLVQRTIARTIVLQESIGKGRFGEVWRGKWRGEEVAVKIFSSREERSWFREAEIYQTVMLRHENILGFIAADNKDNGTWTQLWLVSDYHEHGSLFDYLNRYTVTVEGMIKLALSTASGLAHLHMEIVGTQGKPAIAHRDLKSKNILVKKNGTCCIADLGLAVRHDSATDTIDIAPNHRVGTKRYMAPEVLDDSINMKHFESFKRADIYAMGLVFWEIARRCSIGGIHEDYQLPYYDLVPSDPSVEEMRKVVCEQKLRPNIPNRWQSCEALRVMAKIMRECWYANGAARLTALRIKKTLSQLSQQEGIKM
Description: Six ALK kinase enzyme assays were developed for determination of compound activities on ALK1, ALK2, ALK3, ALK4, ALK5 and ALK6.
as §1

[4] = cell-based assay, BMP6, read-out: Cell IC50 BMP6
[5] = HTRF assay, BMP6 as agonist, C2C12 cells, read-out: BMP6 HTRF

Chain of ALK3 (P36894 24-532): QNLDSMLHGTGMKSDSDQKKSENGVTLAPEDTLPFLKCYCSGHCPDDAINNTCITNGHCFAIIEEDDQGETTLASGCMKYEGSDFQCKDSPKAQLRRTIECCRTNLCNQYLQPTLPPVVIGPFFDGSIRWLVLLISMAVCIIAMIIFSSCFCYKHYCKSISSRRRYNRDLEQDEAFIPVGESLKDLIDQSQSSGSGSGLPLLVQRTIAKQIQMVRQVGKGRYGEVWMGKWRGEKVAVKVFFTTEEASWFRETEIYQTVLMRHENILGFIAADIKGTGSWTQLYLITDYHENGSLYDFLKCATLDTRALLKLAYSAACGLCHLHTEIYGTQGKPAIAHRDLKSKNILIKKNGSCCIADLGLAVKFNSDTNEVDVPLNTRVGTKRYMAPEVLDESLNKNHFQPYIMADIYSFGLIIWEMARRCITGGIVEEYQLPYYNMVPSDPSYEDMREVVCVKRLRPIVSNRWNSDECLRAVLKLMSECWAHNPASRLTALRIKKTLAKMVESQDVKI
Chain of ALK1 (P37023 22-503): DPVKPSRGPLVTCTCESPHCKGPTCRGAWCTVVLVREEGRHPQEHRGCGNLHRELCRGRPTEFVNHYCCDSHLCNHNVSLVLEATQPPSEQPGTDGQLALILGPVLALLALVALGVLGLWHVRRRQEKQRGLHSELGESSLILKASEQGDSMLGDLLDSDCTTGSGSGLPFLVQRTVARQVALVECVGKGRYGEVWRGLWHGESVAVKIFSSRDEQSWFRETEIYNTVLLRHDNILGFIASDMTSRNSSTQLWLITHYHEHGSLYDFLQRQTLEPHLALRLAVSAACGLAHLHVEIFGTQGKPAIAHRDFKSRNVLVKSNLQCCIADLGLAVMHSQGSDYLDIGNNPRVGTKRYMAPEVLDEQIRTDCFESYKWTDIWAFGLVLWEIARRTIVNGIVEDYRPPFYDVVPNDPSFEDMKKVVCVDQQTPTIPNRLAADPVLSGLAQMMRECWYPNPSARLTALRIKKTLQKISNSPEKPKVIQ
Chain of ALK6 (O00238 14-502): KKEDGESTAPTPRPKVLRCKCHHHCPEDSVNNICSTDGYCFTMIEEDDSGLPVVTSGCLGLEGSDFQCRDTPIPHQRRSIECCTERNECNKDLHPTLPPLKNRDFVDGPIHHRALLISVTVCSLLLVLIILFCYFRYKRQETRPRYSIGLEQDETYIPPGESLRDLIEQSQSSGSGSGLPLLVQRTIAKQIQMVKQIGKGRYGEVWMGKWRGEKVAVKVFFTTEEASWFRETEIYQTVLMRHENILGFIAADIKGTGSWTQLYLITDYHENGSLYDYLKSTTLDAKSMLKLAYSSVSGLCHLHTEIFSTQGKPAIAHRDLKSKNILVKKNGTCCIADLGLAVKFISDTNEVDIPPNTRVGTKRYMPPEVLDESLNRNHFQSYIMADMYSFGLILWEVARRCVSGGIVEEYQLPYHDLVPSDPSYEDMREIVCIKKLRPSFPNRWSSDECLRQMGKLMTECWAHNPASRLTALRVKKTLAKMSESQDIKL

Row | SMILES | IC50 (ALK1) | IC50 (ALK6) | IC50 (ALK2 [1]) | IC50 (ALK2 [2]; [4]) | IC50 (ALK3) | IC50 [3] | IC50 (ALK4) | IC50 (ALK5) | IC50 (ALK2 [2]; [5])
1 | O=C(O)c1ccc(-c2cnn3cc(-c4ccc(N5CCNCC5)cc4)cnc23)c2ccccc12 [Compound 1, 4-(6-(4-(piperazin-1-yl)phenyl)pyrazolo[1,5-a]pyrimidin-3-yl)-1-naphthoic acid] | 186 nM | 1740 nM | 37 nM | 8660 nM | 984 nM | 100000 nM |  |  | 
2 | CNC(=O)c1ccc(-c2cnn3cc(-c4ccc(N5CCNCC5)cc4)cnc23)c2ccccc12 [Compound 3, N-methyl-4-(6-(4-(piperazin-1-yl)phenyl)pyrazolo[1,5-a]pyrimidin-3-yl)-1-naphthamide] | 19600 nM |  | 1760 nM | 3190 nM | 18200 nM | 15300 nM |  |  | 
3 | CN(C)C(=O)c1ccc(-c2cnn3cc(-c4ccc(N5CCNCC5)cc4)cnc23)c2ccccc12 [Compound 4, N,N-dimethyl-4-(6-(4-(piperazin-1-yl)phenyl)pyrazolo[1,5-a]pyrimidin-3-yl)-1-naphthamide] | 15400 nM | 76400 nM | 2830 nM | 593 nM |  | 10600 nM |  |  | 
4 | O=C(O)c1cccc2c(-c3cnn4cc(-c5ccc(N6CCNCC6)cc5)cnc34)cccc12 [Compound 5, 5-(6-(4-(piperazin-1-yl)phenyl)pyrazolo[1,5-a]pyrimidin-3-yl)-1-naphthoic acid] | 45 nM | 17 nM | 10 nM | 100000 nM | 17 nM | 100000 nM |  |  | 
5 | CN(C)C(=O)c1cccc2c(-c3cnn4cc(-c5ccc(N6CCNCC6)cc5)cnc34)cccc12 [Compound 8, N,N-dimethyl-5-(6-(4-(piperazin-1-yl)phenyl)pyrazolo[1,5-a]pyrimidin-3-yl)-1-naphthamide] | 8080 nM | 20700 nM | 6560 nM | 2070 nM | 10800 nM | 5540 nM |  |  | 
6 | N/C(=N/O)c1ccc(-c2cnn3cc(-c4ccc(N5CCNCC5)cc4)cnc23)cc1 [Compound 13, N′-hydroxy-4-(6-(4-(piperazin-1-yl)phenyl)pyrazolo[1,5-a]pyrimidin-3-yl)benzimidamide] | 276 nM |  | 38 nM | 380 nM | 880 nM | 6820 nM |  |  | 
7 | C[C@@H]1CNC[C@H](C)N1c1ccc(-c2cnc3c(-c4ccc(CN)c5ccccc45)cnn3c2)cc1 [Compound 23, (4-(6-(4-((2R,6S)-2,6-dimethylpiperazin-1-yl)phenyl)pyrazolo[1,5-a]pyrimidin-3-yl)naphthalen-1-yl)methanamine] | 9600 nM |  | 5310 nM | 33 nM |  | 10800 nM |  |  | 
8 | c1cc(-c2nn[nH]n2)cc(-c2cnn3cc(-c4ccc(CCN5CCCCC5)cc4)cnc23)c1 [Compound 89, 3-(3-(2H-tetrazol-5-yl)phenyl)-6-(4-(2-(piperidin-1-yl)ethyl)phenyl)pyrazolo[1,5-a]pyrimidine] | 7100 nM | > 10000 nM | 14 nM |  | > 10000 nM | 12400 nM | > 10000 nM | > 10000 nM | 
9 | O=[S+]([O-])(c1cccc(-c2cnn3cc(-c4ccc(CN5CCCCC5)cc4)cnc23)c1)C1CC1 [Compound 125, 3-(3-(cyclopropylsulfonyl)phenyl)-6-(4-(piperidin-1-ylmethyl)phenyl)pyrazolo[1,5-a]pyrimidine] | 430 nM | 8400 nM | 66 nM | < 1 nM | > 10000 nM |  | > 10000 nM | > 10000 nM | 
10 | CS(=O)(=O)c1cccc(-c2cnn3cc(-c4ccc(OC5(CN6CCCCC6)CC5)cc4)cnc23)c1 [Compound 134, 3-(3-(methylsulfonyl)phenyl)-6-(4-(1-(piperidin-1-ylmethyl)cyclopropoxy)phenyl)pyrazolo[1,5-a]pyrimidine] | 270 nM | > 10000 nM | 45 nM |  | 1400 nM |  | > 10000 nM | > 10000 nM | 270 nM
11 | CC(O)c1cccc(-c2cnn3cc(-c4ccc(C5(C)CCNCC5)cc4)cnc23)c1 (stereo not drawn) [Compound 136, 1-(3-(6-(4-(4-methylpiperidin-4-yl)phenyl)pyrazolo[1,5-a]pyrimidin-3-yl)phenyl)ethanol] | 220 nM | > 10000 nM | 57 nM |  | 2900 nM |  | > 10000 nM | > 10000 nM | 380 nM
12 | C[C@@H](O)c1cccc(-c2cnn3cc(-c4ccc(OC5(CN6CCCCC6)CC5)cc4)cnc23)c1 [Compound 152, (R)-1-(3-(6-(4-(1-(piperidin-1-ylmethyl)cyclopropoxy)phenyl)pyrazolo[1,5-a]pyrimidin-3-yl)phenyl)ethanol] | 590 nM | 5600 nM | 54 nM |  | 1300 nM |  | > 10000 nM | > 10000 nM | 450 nM
13 | CS(=O)(=O)c1cccc(-c2cnn3cc(-c4ccc(CN5CCCC5)cc4)cnc23)c1 [Compound 164, 3-(3-(methylsulfonyl)phenyl)-6-(4-(pyrrolidin-1-ylmethyl)phenyl)pyrazolo[1,5-a]pyrimidine] | 33 nM | 9800 nM | 3 nM |  | 390 nM |  | 4400 nM | 8200 nM | 180 nM
14 | CC(O)c1cccc(-c2cnn3cc(-c4ccc(CN5CCCC5)cc4)cnc23)c1 (stereo not drawn) [Compound 165, 1-(3-(6-(4-(pyrrolidin-1-ylmethyl)phenyl)pyrazolo[1,5-a]pyrimidin-3-yl)phenyl)ethanol] | 32 nM | 3100 nM | 3 nM |  | 140 nM |  | 1300 nM | 5900 nM | 240 nM
15 | CC(O)c1cccc(-c2cnn3cc(-c4ccc(OC5(CN6CCCC6)CC5)cc4)cnc23)c1 (stereo not drawn) [Compound 167, 1-(3-(6-(4-(1-(pyrrolidin-1-ylmethyl)cyclopropoxy)phenyl)pyrazolo[1,5-a]pyrimidin-3-yl)phenyl)ethanol] | 600 nM | 9300 nM | 49 nM |  | 1100 nM |  | > 10000 nM | > 10000 nM | 370 nM
